From patent US5348941A, “Stabilizers for fibroblast growth factors” (Merck & Co., Inc., priority 1992, dated 1994)

Key:
aFGF = target: T1, aFGF (Homo sapiens, UniProt P05230); test: Thermal denaturation (Tm) of aFGF by fluorescence spectroscopy; type: biochemical; conditions: for molar excess of ligand to aFGF required for 50% stabilization: FIG. 9; for Tm maximum of aFGF, fluorescence: saturating ligand, 100 μg/ml aFGF
T1 construct: The recombinant derived, 140 amino add form is the preferred form of aFGF; N-terminal methionine (MetHaFGF); made in house; host or cells: microbial cells (preferred embodiment)
Protocol: Fluorescence spectra are obtained with a Spex Fluorolog-2 spectrofiuorometer using a 1 mm pathlength cuvette. Band passes from 1-2 nm are employed with sample absorptivities maintained below 0.1 at 280 nm. The temperature is controlled either manually or automatically as described above. Reproducibility of thermal denaturation temperatures (Tm) is ± 2° C.
To more directly ascertain the effect of heparin on aFGF stability, the temperature-induced denaturation of aFGF as a function of heparin concentration was monitored by fluorescence spectroscopy. Fluorescence spectra were obtained with a Spex Fluorolog-2 spectrofiuorometer using a 1 mm pathlength cuvette. Band passes from 1-2 nm were employed with sample absorptivities maintained below 0.1 at 280 nm. The temperature was controlled either manually or automatically as described above. Reproducibility of thermal denaturation temperatures (Tm) was ±2° C. […] Experiments were carried out at 100 μg/ml protein (6.3 μM) in a PBS buffer at pH 7.2. Curve drawn through data points for clarity only.
Studies of the stabilization of aFGF by heparin are difficult to interpret because of the inherent heterogeneity of heparin preparations, Lane and Lindahl, Eds. Heparin, Chemical and Biological Properties, Clinical Applications, Edward Arnold, London (1989); Jackson, et al., Physiol. Rev. 71: 481-539 (1991). In order to better understand the polyanionic stabilization of aFGF, a series of well-defined fragments of heparin were examined for their ability to stabilize aFGF against thermal denaturation. These enzymatically prepared and purified fragments varied in size from a disaccharide to a decasaccharide. Each fragment was incubated with aFGF at a 1:1 weight ratio in a PBS buffer. The sample was then stressed by temperature and structural changes in aFGF were monitored by both circular dichroism and fluorescence spectroscopy. […] All samples contained 100 μg/ml aFGF (6.3 μM)in a PBS buffer (pH 7.2) with 100 μg/ml of each heparin fragment.
Since these fragments of heparin have a well-defined molecular weight, the molar ratio of aFGF to ligand during these thermal denaturation experiments can be calculated. The Tm of aFGF as a function of the molar concentration of the hexasaccharide was measured by fluorescence spectroscopy. Fluorescence spectra were obtained with a Spex Fluorolog-2 spectrofiuorometer using a 1mm pathlength cuvette. Band passes from 1-2 nm were employed with sample absorptivities maintained below 0.1 at 280 nm. The temperature was controlled either manually or automatically as described above. Reproducibility of thermal denaturation temperatures (Tm) was ±2° C.
Analogous to the heparin experiments illustrated in Example 1 (FIG. 3), aFGF thermal stability was monitored by fluorescence spectroscopy as a function of concentration for several other of the polyanions. […] All samples contained 100 μg/ml of aFGF (6.3 μM) in a PBS buffer at pH 7.2.

[1] = test system: genetically diabetic C57GBL/Ks- db+/db^+ female mice; test: In vivo wound healing model (single 2 cm^2 full thickness wound); set-up: species or system mouse; conditions: with aFGF
Source text: The in vivo animal wound healing model employs genetically diabetic c57GBL/Ks- db+/db+ female mice. The assay follows that described by Marsella et al., Wounds: A Compendium of Clinical Research and Practice, 2, (4) July/August 1990, p. 135-147, except that a single 2 cm^2 full thickness wound is used instead of the two 6 mm biopsy wounds described by Marsella. Another difference is that the wounds are covered with a polyurethane dressing. Addic FGF is applied to wounds on days 0, 3 and 7. Matching placebo formulations are used in a second group of animals. Dressings are changed every three to four days, at which time wound perimeters are traced for assessment of healing. Comparison of healing rate va. a placebo control is made and evaluated for statistical significance at the 90% healed stage.
Human aFGF as described above was combined with various stabilizers to evaluate wound healing activity of the stabilized aFGF. The in vivo animal wound healing model employs genetically diabetic C57GBL/Ks- db+/db^+ female mice (Jackson Laboratory). The assay follows that described by Marsella et. al., Wounds: A Compendium of Clinical Research and Practice, 2, (4) July/August 1990, p. […] Comparison of healing rate vs. a placebo control is made and evaluated for statistical significance at the 90% healed stage. […]

plasma = test: Anticoagulant activity: clotting time (PT / aPTT assay) relative to heparin; type: biochemical; conditions: equal weight of heparin, no aFGF present
Protocol: Clotting times are monitored by either a one-stage plasma prothrombin time assay (PT assay) or an activated partial thromboplastin time assay (aPTT) using an automated optical detection system (coag-a-Mate®-XC) by General Diagnostics. Clotting times are measured in the presence of varying amounts of heparin (0-50 μg heparin/ml plasma) to generate a standard curve and dotting times of other compounds (at equal wt. amounts) are obtained relative to these standardized values.
^(c) Anticoagulant activity is expressed as a fraction of activity
observed with an equal weight of heparin (+ less than 1/10; ++ 1/10 to
1/2; +++ heparin). No aFGF is present during these measurements.
The anticoagulant properties of heparin are well established, so it was of interest to determine the relative anticoagulant properties of the ligands of this study. The anticoagulant effect of these molecules was measured using a dotting time assay (see methods). Clotting times were monitored by either a one-stage plasma prothrombin time assay (PT assay) or an activated partial thromboplastin time assay (aPTT) using an automated optical detection system (coag-a-Mate*-XC) by General Diagnostics. […]

[2] = test system: BALB/c 3T3 A31 fibroblasts; test: Fibroblast mitogenic assay ([3H]-thymidine incorporation into DNA); type: cell-based; conditions: presence of heparin

T1 sequence (P05230 16-155 limits assumed): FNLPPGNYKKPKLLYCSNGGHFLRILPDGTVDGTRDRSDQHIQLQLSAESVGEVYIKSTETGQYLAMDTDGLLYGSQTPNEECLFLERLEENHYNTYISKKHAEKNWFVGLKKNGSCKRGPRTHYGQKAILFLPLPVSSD

Molecule | molar excess of ligand to aFGF required for 50% stabilization (aFGF; fluorescence) | Tm maximum of aFGF, fluorescence (aFGF; PBS pH 7.2) [°C] | wound healing efficacy [1] | Anticoagulant Activity of Ligand (% Heparin by Wt) (plasma) | thermal melting temperature (Tm) of aFGF, fluorescence (aFGF; 1/3X ligand by weight, PBS pH 7.2) [°C] | thermal melting temperature (Tm) of aFGF, fluorescence (aFGF; 3X ligand by weight, PBS pH 7.2) [°C] | concentration of heparin necessary to obtain one-half the Tm maximum (aFGF; fluorescence, PBS pH 7.2) | mitogenic activity of aFGF [2]
O=P(O)(O)O[C@H]1[C@H](OP(=O)(O)O)[C@@H](OP(=O)(O)O)[C@H](OP(=O)(O)O)[C@@H](OP(=O)(O)O)[C@H]1OP(=O)(O)O [Inositol hexaphosphate, inositol hexaphosphate] | ~2 | 60 |  |  |  |  |  | 
O=S(=O)(O)OC1C(OS(=O)(=O)O)C(OS(=O)(=O)O)C(OS(=O)(=O)O)C(OS(=O)(=O)O)C1OS(=O)(=O)O (stereo not shown) [Inositol hexasulfate, inositol hexasulfate] | ~3.5 | 53 | as efficacious as heparin in stimulating |  |  |  |  | 
heparin [reference compound] |  | 61 |  | + ++ | 59 | 61 | 0.1 X (by weight) | 
O=P(O)(O)OP(=O)(O)OP(=O)(O)OP(=O)(O)O [Tetrapolyphosphate] | approximately 6 | 50 |  |  |  |  |  | showed activity when assayed in the presence of heparin
sulfated β-cyclodextrin | ~1.5 | 56 | as efficacious as heparin in stimulating |  |  |  |  | 
